According to a melting point compilation (Tetko et al.; mined from patent text by program, amines drawn as free bases though some values may be those of a salt):

Row | SMILES | melting point [°C]
1 | CC(=O)C(=Cc1ccc([N+](=O)[O-])cc1)CC(=O)OCCC#N | 98 to 100
2 | O=S(=O)(C=Cc1ccccc1)N1CCc2c([nH]c3ccccc23)C1c1ccc2c(c1)OCO2 (configuration not stated) | 191 to 192
3 | FC(F)(F)C(F)(F)C(F)(F)COc1ccnc(CSc2nc3cscc3[nH]2)c1 | 117
4 | ClCCOc1ccc([C@H]2c3ccc(OCc4ccccc4)cc3OC[C@H]2c2ccccc2)cc1 (racemic) | 66 to 70.6
5 | O=C(NC/C=C/c1ccccc1)c1ccc(OC(F)(F)F)cc1 | 136
6 | COc1ccc(-n2nnc(-c3ccc(Cl)c(Cl)c3)c2N)cc1 | 190 to 191
7 | CCCCCCCCCCOc1cccc(Nc2nnc(Cc3ccncc3)c3ccccc23)c1 | 116 to 119
8 | COc1ccc(C(=O)c2ccc(OC)cc2F)c(C)c1 | 88 to 90
9 | CCOC(=O)C1(C)OC2(O)C3CCCN3C(=O)C(Cc3ccccc3)N2C1=O (configuration not stated) | 134 to 136
10 | CC1(C(=O)O)CCCc2cc(C3CCCCC3)ccc21 (configuration not stated) | 128 to 129
11 | Cc1oc(-c2ccccc2)nc1COc1ccc(OC(C)(C)C(=O)O)cc1 | 136 to 138
12 | OCC1OC(n2cnc3c(NCC(c4ccccc4)c4ccc(Cl)cc4)ncnc32)C(O)C1O (configuration not stated) | 89 to 95
13 | CN(CC(=O)O)[C@H]1CC[C@H](Nc2ncc3ncnc(Nc4ccc(F)c(Cl)c4)c3n2)CC1 | 220 to 228
14 | C/C(=N\OCCBr)[C@H]1CC[C@H]2[C@@H]3CCC4=CC(=O)CC[C@]4(C)[C@H]3CC[C@]12C | 96 to 98
15 | COc1ccccc1N1CCN(CCCNC(=O)c2cccc3c(=O)c(C)c(-c4cccc5ccccc45)oc23)CC1 | 134 to 138
16 | CC(C)(C)OC(=O)Nc1cc(OCc2ccccc2)c2ccc(C#N)cc2c1 | 145
17 | O=S1CCON=C1c1ccc(Cl)s1 (configuration not stated) | 102
18 | CC1SC(c2cccnc2)NC1=O (configuration not stated) | 110
19 | CCOC(=N)c1cccc(C)c1OC | 93 to 96
20 | CCOCc1nc2c(N)nc3cc(-c4cccnc4)ccc3c2n1CCN1CCNCC1 | 208 to 211
21 | O=C(Nc1nc2ccc(Sc3nnc4ccc(-c5cnn(CCOC6CCCCO6)c5)cn34)cc2s1)C1CC1 (configuration not stated) | 110
22 | CN1C(=O)[C@H](NC(=O)CCc2ccc(Cl)cc2Cl)N=C(c2ccccc2)c2cc(NS(C)(=O)=O)ccc21 | 130 to 148
23 | OCc1ccc(Cn2c(CC3CCN(CCNc4ccc(Cl)nn4)CC3)nc3ccccc32)o1 | 188
24 | Cc1ccc(N)c(C(=O)CS(C)=O)c1 (configuration not stated) | 145 to 147
25 | O=C(NCc1ccc(-c2n[nH]c3c2Cc2ccccc2-3)s1)N1CCOCC1 | 240 to 247
26 | COc1ccc2c(n1)c(CCNC(C)=O)c1n2CCCc2ccccc2-1 | 73 to 74
27 | CCOC(=O)Cc1ccc(NC(=O)C(COc2cccnc2)NS(=O)(=O)c2ccc(Cl)cc2)cc1 (racemic) | 136 to 139

Row | SMILES | melting point [°C]
28 | O=C(O)c1ccccc1SCCCCOc1ccc(C=Cc2ccncc2)cc1 | 229 to 231
29 | Cc1ccc2c(OCCCl)c3ccccc3c(OCCCl)c2c1 | 82 to 85
30 | Cc1cc(Cl)cc(C(=O)NC2(C)CC2)c1NC(=O)c1cc(Br)nn1-c1ncccc1Cl | > 250
31 | N#CC1(Nc2ccccc2)CCN(C2CCCc3ccccc32)CC1 (configuration not stated) | 152 to 153
32 | O=C(O)c1csc2c(=O)cc(-c3ccccc3)oc12 | 282 to 283
33 | CC1CCc2ncc([N+](=O)[O-])cc2C1 (configuration not stated) | 50 to 52
34 | CC(C)(C)OC(=O)N[C@H]1CC[C@H](CCN2CCCC2)CC1 | 110
35 | O=C(O)c1cccc(-c2cccc(OCc3ccc(Cl)cc3Cl)n2)c1 | 186 to 187
36 | CC(C)(C)c1cc(C2N[C@H](C(=O)O)CS2)cc(C(C)(C)C)c1O (some centres not stated) | 163 to 165
37 | Cc1ccc(S(=O)(=O)N2CCCC2c2nnnn2[C@@](C)(Cc2ccc(N(C(=O)OC(C)(C)C)C(=O)C3CCNCC3)cc2)C(=O)O)cc1 (some centres not stated) | 180 to 189
38 | Cn1c(-c2ccc(C(=O)O)cc2)ccc1-c1ccc(C(F)(F)F)cc1 | 260 to 261
39 | CCOc1cc(O)nc(N(C)C)n1 | 194 to 195
40 | CCCCc1nc(=O)c2cc(Br)c(F)cc2[nH]1 | 225
41 | CCCCCCSc1ssc(=S)c1-c1cc(C(C)(C)C)c(O)c(C(C)(C)C)c1 | 110
42 | COc1ccc(CCC(=NNc2ccc(C3=NNC(=O)CC3C)cc2)c2ccc(O)cc2O)cc1OC (configuration not stated) | 135 to 140
43 | c1ccc(N2CCN(Cc3n[nH]c4ccccc34)CC2)cc1 | 196 to 197
44 | CCCNC(=O)C1(CCCCC#N)c2ccccc2-c2ccccc21 | 102 to 104
45 | Cc1c(Cc2cccc3ccccc23)c(=O)oc2cc(O)cc(O)c12 | 275 to 280
46 | CSCc1nc(C)cc(O)n1 | 138
47 | Cc1cccc(Nc2nnc(C3OCOCO3)c3ccccc23)c1 | 161
48 | O=C(O)c1ccccc1N1CCN(CC(O)COc2ccccc2)CC1 (configuration not stated) | 235 to 237
49 | COc1ccccc1N1CCN(CCNC(=O)c2cccc(OC)c2OC)CC1 | 133 to 134
50 | CC(C)(C)OC(=O)n1cccc1-c1ccc2c(c1)C(C)(C)C(=O)N2 | 168 to 170
51 | OCCN1CCC(Nc2nc3cncnc3n2Cc2ccc(F)cc2)CC1 | 159
52 | FC(F)C(F)(F)Oc1cccc(Nc2nccc(-c3cncc4ccccc34)n2)c1 | 158 to 160
53 | Cc1ccc(-c2ccc(C)c(C)n2)cc1 | 76

Other lines, results leading:

Row | melting point [°C] | SMILES
54 | 290 to 291 | Cc1[nH]c(=O)c(C#N)cc1-c1ccc(S(C)=O)cc1 (configuration not stated)
55 | 109 to 111 | CC(C)(C)OC(=O)C1=C(c2ccccc2)C(c2ccccc2)OC1=O (configuration not stated)
56 | 217 to 222 | CC(C)Oc1ccc(-n2c(-c3ccc(C(=O)O)cc3)c(C(=O)O)c3cc(Oc4ccc(Cl)cc4)ccc32)cc1
57 | 236 to 238 | CCNC1CCN(c2c(F)cc3c(=O)c(C(=O)O)cn(C4CC4)c3c2F)C1 (configuration not stated)
58 | 99 to 100 | COC(=O)c1ccc(Cl)c(Cn2nnn(C3CC3)c2=O)c1Cl
59 | 139 to 141 | COc1cc(C(C)C)c2c(c1)S(=O)(=O)N(COC(=O)c1cccs1)C2=O
60 | 139 to 140 | Cn1cnc2c1c(=O)n(CCCO)c(=O)n2C
61 | 131 to 132 | O=C(NC/C=C\COc1cc(CN2CCCCC2)ccn1)NC1CCCCC1
62 | 210 to 244 | Cc1c(O)cc(N2C(=O)c3ccccc3C2=O)cc1C(=O)OCc1ccc([N+](=O)[O-])cc1
63 | 310 to 315 | OCc1cnc2ccc(F)cc2c1O
64 | 129 to 130 | CCOC(=O)c1c(CN(C)O)nc2sc3c(c2c1-c1ccc(OC)c(OC)c1)CCN(C(=O)c1ccccc1)C3
65 | 115 to 117 | CC(C)c1ccc([N+](=O)[O-])c(C(C)C)c1NC(=O)CN1CCN(CCSc2nc3cccc(C(F)(F)F)c3o2)CC1
66 | 173 | c1cnc(NCCN2CCC(=C3c4sccc4CCn4ccnc43)CC2)nc1
67 | 97 to 100 | COC(=O)c1ccccc1C(=O)Nc1cc(C(F)(F)C(F)(F)F)on1
68 | 138 to 139 | C/C(=C\CC1OC(=O)NC1=O)c1cccc(Cc2nc(-c3ccccc3)oc2C)c1 (configuration not stated)
69 | 150 | C=CCn1c2c(c3cc(OCc4ccc5ccccc5n4)ccc31)CCCC2CC(=O)O (configuration not stated)
70 | 115 | CN(CCC(=O)O)S(=O)(=O)c1c(Cl)cccc1Cl
71 | 137 to 138 | CCOC(=O)c1cc2c(Cl)ccc(N(C)S(=O)(=O)c3cccs3)c2n1COC
72 | 255 to 256 | COc1ccc2cc3c(c(-c4ccc5c(c4)OCO5)c2c1OC)CNC3=O
73 | 176 to 178 | NC(=O)C1=NN(c2cccc(COc3ccccc3)c2)C(c2ccccc2F)N1 (configuration not stated)
74 | 146 | C1=Cn2cnnc2Cc2ccsc21
75 | 82 to 84 | O=C1CC[C@@H](CO)N1Cc1ccccc1

Row | melting point [°C] | SMILES
76 | 144 to 147 | COC(=O)[C@@H](Cc1ccc(-c2ncnc3c2ncn3[C@@H]2CCCCO2)cc1)NC(=O)OC(C)(C)C
77 | 172 to 174 | Cc1ccc(S(=O)(=O)NC(=O)Nc2nc(-c3ccccc3)c(-c3ccc(=O)n(C(C)C)n3)s2)cc1
78 | 70 to 71 | Cc1nnc(S(C)(=O)=O)o1
79 | 134 to 135 | CCNC(=O)C1CCN(C(=O)c2cc(-c3ccccc3)c(=O)n3c2-c2sccc2CC3)CC1
80 | 200 to 201 | CCOC(=O)c1cn(C2CC2)c2occc2c1=O
81 | 148 to 150 | Cc1nc2c(N)cccn2c1C
82 | 135 to 136 | COc1cc(COc2cc(N)c(Cl)cc2C(=O)CCCCN2CCC(C)(C)CC2)cc(OC)c1
83 | 182 to 184 | CN1CCN(Cc2c(Cl)cccc2Cl)C(C2=NCCN2)C1 (configuration not stated)
84 | 200 to 203 | CC(=O)Nc1cnc(-c2cc(Cl)cc(Cl)c2Cl)c(N)n1
85 | 143 | CCc1noc(-c2cn(-c3ccc(OC)c(OC)c3)cn2)n1
86 | 105 | O=C(O)Cc1ccc(OCCNC(=O)C2Cc3ccccc3N2S(=O)(=O)c2ccc(-c3cc(C(F)(F)F)ccc3Cl)cc2)cc1F (configuration not stated)
87 | 201 to 202 | O=C(CNC(=O)C(Cc1ccc(OCc2ccccc2)cc1)NC(=O)OCc1ccccc1)Nc1n[nH]c(=S)s1 (configuration not stated)
88 | 167 to 168 | C=C(C)C(=O)Oc1ccc2ccc(O)c(-n3nc4ccccc4n3)c2c1
89 | 131 to 133 | c1ccc(CN2CCC(Nc3cccnc3)CC2)cc1
90 | 160 to 162 | COc1c(C)cnc(Cn2cc(C#CCCCN3CCN(C)CC3)c3c(Cl)nc(N)nc32)c1C
91 | 98 to 100 | COc1cc(N2CCN(C[C@H](C)O)CC2)ccc1Nc1ncc2ccc(-c3ccccc3S(C)(=O)=O)n2n1
92 | 103 to 104 | COC(=O)CCc1ccc(OCC(C)NCC(O)c2ccccc2)cc1 (configuration not stated)
93 | 200 | O=c1c2cccnc2c(-c2ccccc2)cn1Cc1ccncc1
94 | 151 to 153 | CCCc1nc(C(C)O)c(C(=O)OCC)[nH]1 (configuration not stated)
95 | 91 to 92 | COC(OC)c1ccc2c(c1)C(C)(C)C(=O)CC2(C)C
96 | 183 to 185 | CCOC(=O)C1=CC(C2CC2)c2c(ccc(-c3cc4c(s3)C(O)CCC4)c2OC)C1=O (configuration not stated)
97 | 98 to 100 | C=CCNc1nc(NCC=C)c2scc(-c3ccccc3)c2n1
